# Results: PubChem BioAssay AID1963848 (Molecular Pharmacology Branch, DTP, NCI, 2024)
# System: 379773-124-R-J2-PDC spheroid viability
# Experiment: Anticancer human tumor 379773-124-R-J2-PDC patient-derived endometrial carcinoma cell line growth inhibition [POLQ]
# Conditions: spheroids with HUVEC and MSC; for IC50: curve of first compound; for viability, T/C: stronger effect = lower value
# Summary of the method: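 Growth inhibition in 3D: complex spheroids (tumor PDC, HUVEC, MSC) treated with POLQ inhibitor combinations; where Cmax unknown, highest tested concentration 10 microM, except SN-38 at 1 microM.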
# [1] = second compound 0.0316 µM, first compound 0.0316 µM
# [2] = second compound 0.0316 µM, first compound 0.1 µM
# [3] = second compound 0.0316 µM, first compound 0.316 µM
# [4] = second compound 0.0316 µM, first compound 1 µM
# [5] = second compound 0.1 µM, first compound 0.0316 µM
# [6] = second compound 0.1 µM, first compound 0.1 µM
# [7] = second compound 0.1 µM, first compound 0.316 µM
# [8] = second compound 0.1 µM, first compound 1 µM
# [9] = second compound 0.316 µM, first compound 0.0316 µM
# [10] = second compound 0.316 µM, first compound 0.1 µM
# [11] = second compound 0.316 µM, first compound 0.316 µM
# [12] = second compound 0.316 µM, first compound 1 µM
# [13] = second compound 1 µM, first compound 0.0316 µM
# [14] = second compound 1 µM, first compound 0.1 µM
# [15] = second compound 1 µM, first compound 0.316 µM
# [16] = second compound 1 µM, first compound 1 µM
# [17] = second compound 3.16 µM, first compound 0.0316 µM
# [18] = second compound 3.16 µM, first compound 0.1 µM
# [19] = second compound 3.16 µM, first compound 0.316 µM
# [20] = second compound 3.16 µM, first compound 1 µM
# [21] = second compound 10 µM, first compound 0.0316 µM
# [22] = second compound 10 µM, first compound 0.1 µM
# [23] = second compound 10 µM, first compound 0.316 µM
# [24] = second compound 10 µM, first compound 1 µM
# [25] = second compound 0.0316 µM, first compound 3.16 µM
# [26] = second compound 0.0316 µM, first compound 10 µM
# [27] = second compound 0.1 µM, first compound 3.16 µM
# [28] = second compound 0.1 µM, first compound 10 µM
# [29] = second compound 0.316 µM, first compound 3.16 µM
# [30] = second compound 0.316 µM, first compound 10 µM
# [31] = second compound 1 µM, first compound 3.16 µM
# [32] = second compound 1 µM, first compound 10 µM
# [33] = second compound 3.16 µM, first compound 3.16 µM
# [34] = second compound 3.16 µM, first compound 10 µM
# [35] = second compound 10 µM, first compound 3.16 µM
# [36] = second compound 10 µM, first compound 10 µM
# 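Also: spheroids exposed to drugs for seven days before readout.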
# 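For viability, T/C in this document: percent viability relative to DMSO vehicle control taken as 100%.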
smiles,measurement,setting,value
CCc1c2c(nc3ccc(O)cc13)-c1cc3c(c(=O)n1C2)COC(=O)[C@]3(O)CC + COC1C(OC(N)=O)C(O)C(Oc2ccc3c(O)c(NC(=O)c4ccc(O)c(CC=C(C)C)c4)c(=O)oc3c2C)OC1(C)C,IC50,second compound 0.0316 µM,< 3.16 nM
same,IC50,second compound 0.1 µM,< 3.16 nM
same,IC50,second compound 0.316 µM,< 3.16 nM
same,IC50,second compound 1 µM,< 3.16 nM
same,IC50,second compound 3.16 µM,< 3.16 nM
same,IC50,second compound 10 µM,< 3.16 nM
same,"viability, T/C","second compound 0.0316 µM, first compound 0.00316 µM",42.4%
same,"viability, T/C","second compound 0.0316 µM, first compound 0.01 µM",8.01%
same,"viability, T/C",[1],6.39%
same,"viability, T/C",[2],2.16%
same,"viability, T/C",[3],1.05%
same,"viability, T/C",[4],0.62%
same,"viability, T/C","second compound 0.1 µM, first compound 0.00316 µM",49.5%
same,"viability, T/C","second compound 0.1 µM, first compound 0.01 µM",11.7%
same,"viability, T/C",[5],5.4%
same,"viability, T/C",[6],1.94%
same,"viability, T/C",[7],0.57%
same,"viability, T/C",[8],1.04%
same,"viability, T/C","second compound 0.316 µM, first compound 0.00316 µM",45.1%
same,"viability, T/C","second compound 0.316 µM, first compound 0.01 µM",8.27%
same,"viability, T/C",[9],5.04%
same,"viability, T/C",[10],2.09%
same,"viability, T/C",[11],2.43%
same,"viability, T/C",[12],0.41%
same,"viability, T/C","second compound 1 µM, first compound 0.00316 µM",40%
same,"viability, T/C","second compound 1 µM, first compound 0.01 µM",9.16%
same,"viability, T/C",[13],5.09%
same,"viability, T/C",[14],1.92%
same,"viability, T/C",[15],0.94%
same,"viability, T/C",[16],0.31%
same,"viability, T/C","second compound 3.16 µM, first compound 0.00316 µM",41.8%
same,"viability, T/C","second compound 3.16 µM, first compound 0.01 µM",9.15%
same,"viability, T/C",[17],5.39%
same,"viability, T/C",[18],2.03%
same,"viability, T/C",[19],0.93%
same,"viability, T/C",[20],0.3%
same,"viability, T/C","second compound 10 µM, first compound 0.00316 µM",41.5%
same,"viability, T/C","second compound 10 µM, first compound 0.01 µM",7.13%
same,"viability, T/C",[21],6.51%
same,"viability, T/C",[22],1.69%
same,"viability, T/C",[23],1.78%
same,"viability, T/C",[24],0.49%
C#Cc1c(F)ccc2cc(O)cc(-c3ncc4c(N5CC6CCC(C5)N6)nc(OCC56CCCN5CC(F)C6)nc4c3F)c12 (stereo unspecified) + COC1C(OC(N)=O)C(O)C(Oc2ccc3c(O)c(NC(=O)c4ccc(O)c(CC=C(C)C)c4)c(=O)oc3c2C)OC1(C)C,IC50,second compound 0.0316 µM,> 10000 nM
same,IC50,second compound 0.1 µM,> 10000 nM
same,IC50,second compound 0.316 µM,> 10000 nM
same,IC50,second compound 1 µM,> 10000 nM
same,IC50,second compound 3.16 µM,> 10000 nM
same,IC50,second compound 10 µM,> 10000 nM
same,"viability, T/C",[1],89%
same,"viability, T/C",[2],85.8%
same,"viability, T/C",[3],84.4%
same,"viability, T/C",[4],81%
same,"viability, T/C",[25],97.9%
same,"viability, T/C",[26],88.6%
same,"viability, T/C",[5],95.8%
same,"viability, T/C",[6],78.2%
same,"viability, T/C",[7],92.1%
same,"viability, T/C",[8],75.5%
same,"viability, T/C",[27],77.4%
same,"viability, T/C",[28],95%
same,"viability, T/C",[9],91%
same,"viability, T/C",[10],83.9%
same,"viability, T/C",[11],79.7%
same,"viability, T/C",[12],84.5%
same,"viability, T/C",[29],87.6%
same,"viability, T/C",[30],93.4%
same,"viability, T/C",[13],80.8%
same,"viability, T/C",[14],84.3%
same,"viability, T/C",[15],89.9%
same,"viability, T/C",[16],86.8%
same,"viability, T/C",[31],75%
same,"viability, T/C",[32],93.9%
same,"viability, T/C",[17],78.5%
same,"viability, T/C",[18],81.7%
same,"viability, T/C",[19],90.2%
same,"viability, T/C",[20],78.5%
same,"viability, T/C",[33],89.7%
same,"viability, T/C",[34],96.8%
same,"viability, T/C",[21],75.3%
same,"viability, T/C",[22],85.8%
same,"viability, T/C",[23],103%
same,"viability, T/C",[24],79.4%
same,"viability, T/C",[35],75.8%
same,"viability, T/C",[36],106%
Nc1ccn(C2OC(CO)C(O)C2(F)F)c(=O)n1 (stereo unspecified) + Nc1ccc(C#CCN(C(=O)Cc2ncc(C(F)(F)F)cc2C(F)(F)F)c2ccc(F)cc2)nn1,IC50,second compound 0.0316 µM,< 31.6 nM
same,IC50,second compound 0.1 µM,< 31.6 nM
same,IC50,second compound 0.316 µM,< 31.6 nM
same,IC50,second compound 1 µM,< 31.6 nM
same,IC50,second compound 3.16 µM,42 nM
same,IC50,second compound 10 µM,71.9 nM
same,"viability, T/C",[1],15.1%
same,"viability, T/C",[2],10.6%
same,"viability, T/C",[3],11.7%
same,"viability, T/C",[4],13.6%
same,"viability, T/C",[25],12.6%
same,"viability, T/C",[26],9.91%
same,"viability, T/C",[5],19.5%
same,"viability, T/C",[6],11.3%
same,"viability, T/C",[7],11.3%
same,"viability, T/C",[8],11.7%
same,"viability, T/C",[27],12.6%
same,"viability, T/C",[28],11.1%
same,"viability, T/C",[9],24%
same,"viability, T/C",[10],12.2%
same,"viability, T/C",[11],10.3%
same,"viability, T/C",[12],13.1%
same,"viability, T/C",[29],12%
same,"viability, T/C",[30],12%
same,"viability, T/C",[13],36.3%
same,"viability, T/C",[14],11.9%
same,"viability, T/C",[15],10.3%
same,"viability, T/C",[16],9.8%
same,"viability, T/C",[31],10.8%
same,"viability, T/C",[32],12.4%
same,"viability, T/C",[17],61.2%
same,"viability, T/C",[18],15.9%
same,"viability, T/C",[19],10.5%
same,"viability, T/C",[20],10.6%
same,"viability, T/C",[33],9.92%
same,"viability, T/C",[34],10.9%
same,"viability, T/C",[21],96.1%
same,"viability, T/C",[22],31.3%
same,"viability, T/C",[23],12.7%
same,"viability, T/C",[24],9.85%
same,"viability, T/C",[35],10.6%
same,"viability, T/C",[36],9.44%
